# Experimental data from publication doi:10.1101/2021.08.17.455204v3 (biorxiv, 2022).
# Key:
# Progesterone PR-B = Progesterone PR-B (Homo sapiens, UniProt P06401); assay: biochemical; conditions: read-out: % inhibition
# Glucocorticoid = Glucocorticoid (Homo sapiens, UniProt P04150); assay: biochemical; conditions: read-out: % inhibition
# [1] = target: Peptidase, Angiotensin Converting Enzyme (Oryctolagus cuniculus, UniProt P12822); assay: biochemical; conditions: read-out: % inhibition
# Monoamine Oxidase MAO-B = Monoamine Oxidase MAO-B (Homo sapiens, UniProt P27338); assay: biochemical; conditions: read-out: % inhibition
# Peptidase, Renin = Peptidase, Renin (Homo sapiens, UniProt P00797); assay: biochemical; conditions: read-out: % inhibition
# Sequence of Peptidase, Renin (P00797 whole entry): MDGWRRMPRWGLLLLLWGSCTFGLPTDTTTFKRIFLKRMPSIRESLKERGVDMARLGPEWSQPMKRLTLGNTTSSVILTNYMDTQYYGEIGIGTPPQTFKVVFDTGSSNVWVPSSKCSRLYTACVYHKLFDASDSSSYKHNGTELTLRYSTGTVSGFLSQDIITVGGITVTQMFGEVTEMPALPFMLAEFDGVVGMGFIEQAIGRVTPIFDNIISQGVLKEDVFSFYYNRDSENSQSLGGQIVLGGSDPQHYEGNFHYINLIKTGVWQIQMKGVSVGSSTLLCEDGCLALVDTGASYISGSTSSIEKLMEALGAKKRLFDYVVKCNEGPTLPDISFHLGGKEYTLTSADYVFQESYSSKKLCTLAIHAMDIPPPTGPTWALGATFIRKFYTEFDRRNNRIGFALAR
# Monoamine Oxidase MAO-A = Monoamine Oxidase MAO-A (Homo sapiens, UniProt P21397); assay: biochemical; conditions: read-out: % inhibition
# [2] = target: Protein Tyrosine Kinase, Src (Homo sapiens, UniProt P12931); assay: biochemical; conditions: read-out: % inhibition
# Sequence of Protein Tyrosine Kinase, Src (P12931 whole entry): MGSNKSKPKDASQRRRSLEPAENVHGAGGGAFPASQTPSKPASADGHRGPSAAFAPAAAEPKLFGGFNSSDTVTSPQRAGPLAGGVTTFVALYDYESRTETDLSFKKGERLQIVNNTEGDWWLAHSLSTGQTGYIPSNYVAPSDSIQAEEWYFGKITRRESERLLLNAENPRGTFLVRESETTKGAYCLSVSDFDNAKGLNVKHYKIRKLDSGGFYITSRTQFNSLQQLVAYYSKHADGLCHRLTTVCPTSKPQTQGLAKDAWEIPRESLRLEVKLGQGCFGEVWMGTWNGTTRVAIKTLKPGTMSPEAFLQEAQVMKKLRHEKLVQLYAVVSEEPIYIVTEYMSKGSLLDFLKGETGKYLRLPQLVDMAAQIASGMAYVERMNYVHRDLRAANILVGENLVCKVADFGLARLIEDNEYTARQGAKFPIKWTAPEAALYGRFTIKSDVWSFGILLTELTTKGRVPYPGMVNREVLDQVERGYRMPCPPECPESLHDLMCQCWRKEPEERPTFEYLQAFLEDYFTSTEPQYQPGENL
# HMG-CoA Reductase = HMG-CoA Reductase (Homo sapiens, UniProt P04035); assay: biochemical; conditions: read-out: % inhibition
# [3] = target: Protein Tyrosine Kinase, ABL1 (Homo sapiens, UniProt P00519); assay: biochemical; conditions: read-out: % inhibition
# Aldosterone = Aldosterone (Rattus norvegicus, UniProt P22199); assay: biochemical; conditions: read-out: % inhibition
# Insulin = Insulin (Rattus norvegicus, UniProt P15127); assay: biochemical; conditions: read-out: % inhibition
# Androgen (Testosterone) = Androgen (Testosterone) (Homo sapiens, UniProt P10275); assay: biochemical; conditions: read-out: % inhibition
# [4] = target: Na+/K+ ATPase alpha1 isoform from dog kidney (Canis lupus, UniProt P50997); assay: […]-ATP hydrolysis, ouabain-sensitive ATPase inhibition; assay type: biochemical
# Adrenergic α1A = Adrenergic α1A (Rattus norvegicus, UniProt P43140); assay: biochemical; conditions: read-out: % inhibition
# Estrogen ERβ = Estrogen ERβ (Homo sapiens, UniProt Q92731); assay: biochemical; conditions: read-out: % inhibition
# Adenosine A1 = Adenosine A1 (Homo sapiens, UniProt P30542); assay: biochemical; conditions: read-out: % inhibition
# Adrenergic β2 = Adrenergic β2 (Homo sapiens, UniProt P07550); assay: biochemical; conditions: read-out: % inhibition
# Sequence of Adrenergic β2 (P07550 whole entry): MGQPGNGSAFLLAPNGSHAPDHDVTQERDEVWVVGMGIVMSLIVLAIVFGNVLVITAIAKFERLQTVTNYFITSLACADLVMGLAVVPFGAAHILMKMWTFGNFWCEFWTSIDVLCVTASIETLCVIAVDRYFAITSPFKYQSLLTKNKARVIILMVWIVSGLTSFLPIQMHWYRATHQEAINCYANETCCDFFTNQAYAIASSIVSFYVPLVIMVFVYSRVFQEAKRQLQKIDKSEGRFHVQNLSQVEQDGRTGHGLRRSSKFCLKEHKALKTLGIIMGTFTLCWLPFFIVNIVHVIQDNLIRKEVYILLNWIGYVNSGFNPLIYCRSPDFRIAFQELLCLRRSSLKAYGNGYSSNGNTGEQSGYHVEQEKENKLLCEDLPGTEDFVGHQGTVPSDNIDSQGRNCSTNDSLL
# Muscarinic M3 = Muscarinic M3 (Homo sapiens, UniProt P20309); assay: biochemical; conditions: read-out: % inhibition
# Potassium Channel hERG = Potassium Channel hERG (Homo sapiens, UniProt Q12809); assay: in vitro; conditions: crude membrane preparations
# Estrogen ERα = Estrogen ERα (Homo sapiens, UniProt P03372); assay: biochemical; conditions: read-out: % inhibition
# Dopamine D2s = Dopamine D2s (Homo sapiens, UniProt P14416); assay: biochemical; conditions: read-out: % inhibition
# Dopamine D3 = Dopamine D3 (Homo sapiens, UniProt P35462); assay: biochemical; conditions: read-out: % inhibition
# Sigma σ1 = Sigma σ1 (Homo sapiens, UniProt Q99720); assay: biochemical; conditions: read-out: % inhibition
# Sequence of Sigma σ1 (Q99720 whole entry): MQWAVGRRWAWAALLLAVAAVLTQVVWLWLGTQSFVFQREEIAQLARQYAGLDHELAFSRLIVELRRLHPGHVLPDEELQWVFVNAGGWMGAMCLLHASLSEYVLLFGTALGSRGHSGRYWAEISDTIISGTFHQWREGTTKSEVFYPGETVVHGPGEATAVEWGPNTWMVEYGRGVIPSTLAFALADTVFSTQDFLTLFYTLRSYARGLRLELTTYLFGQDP
# Adrenergic α1B = Adrenergic α1B (Rattus norvegicus, UniProt P15823); assay: biochemical; conditions: read-out: % inhibition
# Sequence of Adrenergic α1B (P15823 whole entry): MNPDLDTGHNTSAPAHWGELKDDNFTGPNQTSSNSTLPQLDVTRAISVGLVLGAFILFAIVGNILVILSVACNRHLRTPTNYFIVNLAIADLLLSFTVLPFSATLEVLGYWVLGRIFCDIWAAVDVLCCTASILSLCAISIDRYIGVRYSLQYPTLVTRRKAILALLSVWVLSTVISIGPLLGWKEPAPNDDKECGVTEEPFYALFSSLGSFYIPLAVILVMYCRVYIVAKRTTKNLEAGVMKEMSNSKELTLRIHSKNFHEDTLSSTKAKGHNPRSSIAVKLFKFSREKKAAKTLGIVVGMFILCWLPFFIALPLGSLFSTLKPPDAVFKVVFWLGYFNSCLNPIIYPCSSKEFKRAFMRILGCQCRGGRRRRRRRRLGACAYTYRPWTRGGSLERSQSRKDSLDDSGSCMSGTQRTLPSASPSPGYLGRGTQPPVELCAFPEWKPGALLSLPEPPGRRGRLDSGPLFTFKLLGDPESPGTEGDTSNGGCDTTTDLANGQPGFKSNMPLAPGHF
# Adrenergic α2A = Adrenergic α2A (Homo sapiens, UniProt P08913); assay: biochemical; conditions: read-out: % inhibition
# Sequence of Adrenergic α2A (P08913 whole entry): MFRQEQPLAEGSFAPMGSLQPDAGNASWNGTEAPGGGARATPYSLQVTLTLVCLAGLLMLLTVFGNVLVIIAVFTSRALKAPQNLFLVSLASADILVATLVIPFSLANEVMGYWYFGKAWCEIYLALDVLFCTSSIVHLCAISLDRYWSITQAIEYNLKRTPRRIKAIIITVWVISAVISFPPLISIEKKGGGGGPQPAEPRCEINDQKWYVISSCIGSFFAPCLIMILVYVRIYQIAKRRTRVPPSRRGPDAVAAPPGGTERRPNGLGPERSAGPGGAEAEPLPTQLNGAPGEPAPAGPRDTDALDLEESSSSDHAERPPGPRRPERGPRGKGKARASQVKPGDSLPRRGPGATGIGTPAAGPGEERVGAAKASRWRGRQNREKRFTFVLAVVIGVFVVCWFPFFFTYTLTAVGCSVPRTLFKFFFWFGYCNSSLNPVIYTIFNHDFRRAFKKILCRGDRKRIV
# Angiotensin AT1 = Angiotensin AT1 (Homo sapiens, UniProt P30556); assay: biochemical; conditions: read-out: % inhibition
# Sigma σ2 = Sigma σ2 (Rattus norvegicus, UniProt Q5U3Y7); assay: biochemical; conditions: read-out: % inhibition
# Sequence of Sigma σ2 (Q5U3Y7 whole entry): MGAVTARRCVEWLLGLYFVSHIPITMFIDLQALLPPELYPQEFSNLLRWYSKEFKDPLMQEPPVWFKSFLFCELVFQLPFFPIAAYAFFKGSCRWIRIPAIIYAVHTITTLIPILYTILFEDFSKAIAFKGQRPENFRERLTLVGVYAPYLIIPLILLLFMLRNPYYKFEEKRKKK
# Adrenergic β1 = Adrenergic β1 (Homo sapiens, UniProt P08588); assay: biochemical; conditions: read-out: % inhibition
# [5] = target: Transporter, Norepinephrine (NET) (Homo sapiens, UniProt P23975); assay: biochemical; conditions: read-out: % inhibition
# Muscarinic M5 = Muscarinic M5 (Homo sapiens, UniProt P08912); assay: biochemical; conditions: read-out: % inhibition
# [6] = target: Nicotinic Acetylcholine α3β4 (Homo sapiens, UniProt P30926+P32297); assay: biochemical; conditions: read-out: % inhibition
# Angiotensin AT2 = Angiotensin AT2 (Homo sapiens, UniProt P50052); assay: biochemical; conditions: read-out: % inhibition
# Adenosine A2A = Adenosine A2A (Homo sapiens, UniProt P29274); assay: biochemical; conditions: read-out: % inhibition
# Dopamine D1 = Dopamine D1 (Homo sapiens, UniProt P21728); assay: biochemical; conditions: read-out: % inhibition
# Sequence of Dopamine D1 (P21728 whole entry): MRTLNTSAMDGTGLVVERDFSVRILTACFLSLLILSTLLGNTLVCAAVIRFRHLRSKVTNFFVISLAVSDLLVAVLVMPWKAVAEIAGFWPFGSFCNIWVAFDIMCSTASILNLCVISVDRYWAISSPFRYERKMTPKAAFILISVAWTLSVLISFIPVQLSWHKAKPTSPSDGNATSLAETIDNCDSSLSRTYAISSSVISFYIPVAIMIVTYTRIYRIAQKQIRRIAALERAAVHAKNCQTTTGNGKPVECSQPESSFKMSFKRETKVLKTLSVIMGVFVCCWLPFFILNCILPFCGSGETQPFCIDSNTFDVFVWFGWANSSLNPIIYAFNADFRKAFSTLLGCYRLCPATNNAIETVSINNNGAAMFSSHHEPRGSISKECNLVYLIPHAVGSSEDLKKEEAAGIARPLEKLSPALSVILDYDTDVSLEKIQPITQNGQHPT
# Opiate μ (OP3, MOP) = Opiate μ (OP3, MOP) (Homo sapiens, UniProt P35372); assay: biochemical; conditions: read-out: % inhibition
# Histamine H1 = Histamine H1 (Homo sapiens, UniProt P35367); assay: biochemical; conditions: read-out: % inhibition
# Muscarinic M2 = Muscarinic M2 (Homo sapiens, UniProt P08172); assay: biochemical; conditions: read-out: % inhibition
# [7] = target: SERCA2a (guinea-pig cardiac SR microsomes) (Cavia porcellus, UniProt A0A286XD73); assay: […]-ATP hydrolysis; assay type: biochemical; conditions: 37 °C; normal guinea-pig heart SR microsomes; activation; PLN present
# CYP450, 19 = CYP450, 19 (Homo sapiens, UniProt P11511); assay: biochemical; conditions: read-out: % inhibition
# Sequence of CYP450, 19 (P11511 whole entry): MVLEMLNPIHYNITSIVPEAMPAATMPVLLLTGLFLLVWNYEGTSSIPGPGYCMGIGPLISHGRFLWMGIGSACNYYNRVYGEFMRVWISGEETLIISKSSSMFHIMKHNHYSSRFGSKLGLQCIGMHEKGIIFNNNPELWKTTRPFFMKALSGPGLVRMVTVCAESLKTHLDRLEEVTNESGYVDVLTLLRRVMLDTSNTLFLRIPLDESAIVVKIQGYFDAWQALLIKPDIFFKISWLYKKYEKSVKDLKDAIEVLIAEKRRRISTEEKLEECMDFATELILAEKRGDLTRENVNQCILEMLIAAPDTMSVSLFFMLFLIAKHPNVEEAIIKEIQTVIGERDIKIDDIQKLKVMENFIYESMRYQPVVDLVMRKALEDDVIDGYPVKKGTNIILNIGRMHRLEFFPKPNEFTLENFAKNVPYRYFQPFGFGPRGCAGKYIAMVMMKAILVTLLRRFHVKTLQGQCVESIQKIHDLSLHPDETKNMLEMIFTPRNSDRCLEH
# Sequence of Peptidase, Angiotensin Converting Enzyme (P12822 whole entry): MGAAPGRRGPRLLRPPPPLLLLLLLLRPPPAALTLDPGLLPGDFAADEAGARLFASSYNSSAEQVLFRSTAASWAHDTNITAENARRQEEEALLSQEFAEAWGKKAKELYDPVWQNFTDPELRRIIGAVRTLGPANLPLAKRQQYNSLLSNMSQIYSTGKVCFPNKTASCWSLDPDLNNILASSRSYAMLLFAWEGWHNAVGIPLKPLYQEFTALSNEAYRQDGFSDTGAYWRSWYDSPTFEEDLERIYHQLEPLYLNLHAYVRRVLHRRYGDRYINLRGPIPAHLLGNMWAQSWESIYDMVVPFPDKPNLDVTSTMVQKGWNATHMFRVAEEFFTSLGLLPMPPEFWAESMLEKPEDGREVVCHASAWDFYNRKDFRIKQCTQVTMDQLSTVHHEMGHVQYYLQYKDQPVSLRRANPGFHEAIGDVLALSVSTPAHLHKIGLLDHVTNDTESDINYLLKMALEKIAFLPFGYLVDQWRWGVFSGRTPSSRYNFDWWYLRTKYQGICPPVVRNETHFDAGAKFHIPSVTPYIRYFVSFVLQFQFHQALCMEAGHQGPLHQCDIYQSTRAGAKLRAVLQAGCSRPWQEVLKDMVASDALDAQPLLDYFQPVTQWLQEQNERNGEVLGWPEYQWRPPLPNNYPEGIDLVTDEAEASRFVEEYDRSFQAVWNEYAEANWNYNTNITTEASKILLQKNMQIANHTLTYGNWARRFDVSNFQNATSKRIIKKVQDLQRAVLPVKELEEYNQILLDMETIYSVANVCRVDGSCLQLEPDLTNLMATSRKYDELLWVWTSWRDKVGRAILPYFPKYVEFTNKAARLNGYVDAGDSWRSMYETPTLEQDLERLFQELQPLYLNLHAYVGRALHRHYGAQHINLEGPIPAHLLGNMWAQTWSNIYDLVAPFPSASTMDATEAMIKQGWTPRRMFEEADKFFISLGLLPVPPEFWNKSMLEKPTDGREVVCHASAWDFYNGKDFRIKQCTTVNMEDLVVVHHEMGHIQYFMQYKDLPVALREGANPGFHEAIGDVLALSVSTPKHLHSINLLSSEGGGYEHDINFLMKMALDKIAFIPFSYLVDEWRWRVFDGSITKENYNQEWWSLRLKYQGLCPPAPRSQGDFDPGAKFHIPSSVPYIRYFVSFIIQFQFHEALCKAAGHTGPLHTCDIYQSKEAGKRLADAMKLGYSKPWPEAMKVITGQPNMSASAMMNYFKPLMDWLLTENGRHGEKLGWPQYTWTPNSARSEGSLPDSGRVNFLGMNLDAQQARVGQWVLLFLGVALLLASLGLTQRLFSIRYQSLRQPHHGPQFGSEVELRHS
structure (smiles),measurement,setting,value
"C[C@]12CCC(=NOCC(=O)O)C[C@@H]1[C@H](O)C[C@@H]1[C@@H]2CC[C@]2(C)C(=O)CC[C@@H]12 (mixture of isomers) [PST3093, (E,Z)-[(6-beta-hydroxy-17-oxoandrostan-3-ylidene)amino]oxyacetic acid]",inhibition at 10 µM,Progesterone PR-B,-15%
same,inhibition at 10 µM,Glucocorticoid,8%
same,inhibition at 10 µM,[1],3%
same,inhibition at 10 µM,Monoamine Oxidase MAO-B,-3%
same,inhibition at 10 µM,"Peptidase, Renin",6%
same,inhibition at 10 µM,Monoamine Oxidase MAO-A,2%
same,inhibition at 10 µM,[2],-1%
same,inhibition at 10 µM,HMG-CoA Reductase,-2%
same,inhibition at 10 µM,[3],3%
same,inhibition at 10 µM,Aldosterone,5%
same,inhibition at 10 µM,Insulin,6%
same,inhibition at 10 µM,Androgen (Testosterone),3%
same,IC50,[4],> 100 µM
same,inhibition at 10 µM,Adrenergic α1A,2%
same,inhibition at 10 µM,Estrogen ERβ,7%
same,inhibition at 10 µM,Adenosine A1,-2%
same,inhibition at 10 µM,Adrenergic β2,7%
same,inhibition at 10 µM,Muscarinic M3,4%
same,inhibition at 10 µM,Potassium Channel hERG,10%
same,inhibition at 10 µM,Estrogen ERα,-6%
same,inhibition at 10 µM,Dopamine D2s,26%
same,inhibition at 10 µM,Dopamine D3,1%
same,inhibition at 10 µM,Sigma σ1,7%
same,inhibition at 10 µM,Adrenergic α1B,0%
same,inhibition at 10 µM,Adrenergic α2A,-5%
same,inhibition at 10 µM,Angiotensin AT1,-1%
same,inhibition at 10 µM,Sigma σ2,12%
same,inhibition at 10 µM,Adrenergic β1,-4%
same,inhibition at 10 µM,[5],4%
same,inhibition at 10 µM,Muscarinic M5,5%
same,inhibition at 10 µM,[6],1%
same,inhibition at 10 µM,Angiotensin AT2,7%
same,inhibition at 10 µM,Adenosine A2A,-6%
same,inhibition at 10 µM,Dopamine D1,3%
same,inhibition at 10 µM,"Opiate μ (OP3, MOP)",-5%
same,inhibition at 10 µM,Histamine H1,-3%
same,inhibition at 10 µM,Muscarinic M2,-7%
same,% reduction of KdCa at 100 nM,[7],~ 20%
same,inhibition at 10 µM,"CYP450, 19",12%
